Measured values: publication PMC7217150, “Synthesis, Modification, and Biological Evaluation of a Library of Novel Water‐Soluble Thiopyridone‐Based Organometallic Complexes and Their Unexpected (Biological) Behavior” (Chemistry (Weinheim an Der Bergstrasse, Germany), 2020)
Read-outs that look alike come from different tables or passages of the source.

Tests used:
SW480 = experiment: MTT cytotoxicity assay, monolayer culture; type: cell-based, human
Source text: (§1) A549 (non‐small cell lung carcinoma), SW480 and HCT‐116 (both colon carcinoma) were kindly provided by Brigitte Marian, Institute of Cancer Research, Department of Medicine I, Medical University of Vienna, Austria. The cell line CH1/PA‐1 (ovarian teratocarcinoma) was kindly provided by Lloyd R. Kelland (CRC Centre for Cancer Therapeutics, Institute of Cancer Research, Sutton, UK). All cell culture media (including supplements) and reagents were obtained from Sigma–Aldrich, and all plasticware from StarLab, unless indicated otherwise.

CH1/PA‐1 [1] = experiment: MTT cytotoxicity assay, monolayer culture; type: cell-based, human; details: CH1/PA‐1, MTT assay, exposure time 96 h, means ± SDs
Source text: as §1

A549 [2] = experiment: MTT cytotoxicity assay, monolayer culture; type: cell-based, human; details: exposure time 96 h, means ± SDs
Source text: as §1

SW480 cells = details: ICP‐MS, 2 h exposure, 50 μM
CH1/PA‐1 [3] = details: CH1/PA‐1 multicellular spheroids, 96 h drug exposure
Description: (§2) A549, CH1/PA‐1 and SW480 cells were grown in MEM supplemented with 10 % fetal calf serum (FCS; from Biowest), 1 mM sodium pyruvate, 4 mM L‐glutamine and 1 % v/v nonessential amino acids (from 100×solution) and L‐glutamine. HCT‐116 cells were maintained in McCoy's 5a medium supplemented with 10 % FCS and L‐glutamine. Adherent monolayer cultures were grown in 75 cm^2 flasks. For spheroid culture, A549, CH1/PA‐1 and HCT‐116 cells were harvested from culture flasks by trypsinization, resuspended in their respective supplemented medium and seeded in ultra‐low attachment round‐bottom 96‐well plates (Corning Costar) at a density of 500 viable cells per well. Plates were incubated for 96 h to allow spheroid formation prior to use for the tests. All cultures were incubated in a humidified incubator at 37 °C with 5 % CO2.
(§3) Cytotoxicity in multicellular spheroids was determined by the fluorimetric resazurin assay. […] After incubation for 96 h, 20 μL of a 440 μM resazurin sodium salt solution in PBS were added to each well, and the plates were incubated for further 16 h. Fluorescence was measured with a Synergy HT reader (BioTek) with an excitation wavelength of 530 nm and emission wavelength of 590 nm. For both assays, at least three independent experiments (or two in case of poor activity) were performed, each with triplicates per concentration level, and the 50 % inhibitory concentrations (IC50) relative to untreated controls were interpolated from concentration‐effect curves.

HCT‐116 = HCT‐116 multicellular spheroids, 96 h drug exposure
Description: as §2, §3

A549 [4] = details: A549 multicellular spheroids, 96 h drug exposure
Description: as §2, §3

[5] = pH 7.2
Description: Stock solutions containing the desired complex in DMSO (5 mM) were diluted with phosphate buffer (pH 7.2) to a final concentration of […] compound in 1 % DMSO/20 mM buffer and directly analyzed by four different isocratic UHPLC runs (Δ=5 %). The lipophilicity parameters logkw and lipophilicity indices φ0 were calculated according to literature.7, 37

Compound: Cc1c([O-])c(=S)ccn1C.Cc1ccc(C(C)C)cc1.[Cl-].[Ru+2] [Compound 3 a, Chlorido[1,2‐dimethyl‐3‐oxo‐κO‐pyridine‐4(1H)‐thionato‐κS](η^6‐p‐cymene)‐ruthenium(II)]
- IC50 (SW480; SW480, MTT assay, exposure time 96 h, means ± SDs): 55 ± 18 µM
- IC50 (SW480; SW480, as listed in Table 3): 54.6 ± 18.4 µM
- IC50 (CH1/PA‐1 [1]): > 200 µM
- IC50 (A549 [2]): > 200 µM
- Cellular accumulation (SW480 cells): 21±5 fg/cell
- IC50 (CH1/PA‐1 [3]): 267 ± 14 µM
- IC50 (HCT‐116): > 400 µM
- IC50 (A549 [4]): > 400 µM
- φ0 (chromatographic lipophilicity index) [5]: 5.51
